From US12600709B2, “Nonpeptide somatostatin type 5 receptor agonists and uses thereof” (Crinetics Pharmaceuticals, Inc., priority 2019, dated 2026)
Read-outs that look alike come from different tables or passages of the source.

Biological target: T1, human somatostatin receptor subtype 5 (Homo sapiens, UniProt P35346)
T1 construct: expressed in transfected cells
Assay: cAMP assay for SST5R (inhibition of cAMP in CHO-K1 cells)
Type: cell-based
Settings: inhibition of cAMP via human SST5 receptor, read-out: SST5 potency
Procedure, shortened: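 CHO-K1 cells stably expressing human SSTR5 were treated 20 min at 37 °C with compounds plus 1.6 μM NKH477 in HBSS, 0.5 mM HEPES pH 7.4, 0.1% BSA, 0.2 mM IBMX. Lysate cAMP measured by HTRF against a standard curve; EC50 from cAMP-versus-concentration plots.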

T1 sequence (P35346 whole entry): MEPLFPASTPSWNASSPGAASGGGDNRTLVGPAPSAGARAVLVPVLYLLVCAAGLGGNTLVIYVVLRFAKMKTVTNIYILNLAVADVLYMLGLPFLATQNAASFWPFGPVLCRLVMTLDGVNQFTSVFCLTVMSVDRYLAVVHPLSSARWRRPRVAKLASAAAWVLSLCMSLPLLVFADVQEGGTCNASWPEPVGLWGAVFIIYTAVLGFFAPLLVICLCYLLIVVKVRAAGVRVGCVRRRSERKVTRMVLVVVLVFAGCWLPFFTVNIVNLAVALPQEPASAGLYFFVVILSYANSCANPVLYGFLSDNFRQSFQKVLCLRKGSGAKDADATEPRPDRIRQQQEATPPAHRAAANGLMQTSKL

Molecule | EC50 (Table A) [nM] | EC50 (Table B) [nM]
N#Cc1ncc(C(=O)NC2CCCC2)c(N2CC[C@H](N)C2)c1-c1cc(F)cc(F)c1 [1-82, 4-[(3S)-3-aminopyrrolidin-1-yl]-6-cyano-N-cyclopentyl-5-(3,5-difluorophenyl)pyridine-3-carboxamide] | < 10 | –
C[C@@H](NC(=O)c1cnc(C#N)c(-c2cc(F)cc(F)c2)c1N1CC[C@@H](N)C1)C(F)(F)F [1-227, 4-[(3R)-3-aminopyrrolidin-1-yl]-6-cyano-5-(3,5-difluorophenyl)-N-[(2R)-1,1,1-trifluoropropan-2-yl]pyridine-3-carboxamide] | 100 to 1000 | –
Cc1cccc2[nH]c(-c3cncc(C(=O)N4CCC5(CC5)C4)c3N3CC[C@](C)(N)C3)nc12 [2-39, (3S)-1-(3-{5-azaspiro[2.4]heptane-5-carbonyl}-5-(4-methyl-1H-1,3-benzodiazol-2-yl)pyridin-4-yl)-3-methylpyrrolidin-3-amine] | 10 to 100 | –
Cc1cc(F)cc(-c2cncc(C(=O)Nc3ccn(C)n3)c2N2CC[C@](C)(N)C2)c1 [1-27, 4-[(3S)-3-amino-3-methylpyrrolidin-1-yl]-5-(3-fluoro-5-methylphenyl)-N-(1-methyl-1H-pyrazol-3-yl)pyridine-3-carboxamide] | < 10 | –
C[C@@H](NC(=O)c1cnc(C#N)c(-c2cc(F)cc(F)c2)c1N1CC[C@](C)(N)C1)C(F)(F)F [1-222, 4-[(3S)-3-amino-3-methylpyrrolidin-1-yl]-6-cyano-5-(3,5-difluorophenyl)-N-[(2R)-1,1,1-trifluoropropan-2-yl]pyridine-3-carboxamide] | < 10 | –
COc1ncc(C(=O)NC2CCC(C(F)(F)F)CC2)c(N2CC[C@H](N)C2)c1-c1cc(F)cc(F)c1 (stereo partly drawn) [1-193, 4-[(3S)-3-aminopyrrolidin-1-yl]-5-(3,5-difluorophenyl)-6-methoxy-N-[4-(trifluoromethyl)cyclohexyl]pyridine-3-carboxamide] | 100 to 1000 | –
CN(CC1CC1)C(=O)c1cnc(C#N)c(-c2cc(F)cc(F)c2)c1N1CC[C@](C)(N)C1 [1-218, 4-[(3S)-3-amino-3-methylpyrrolidin-1-yl]-6-cyano-N-(cyclopropylmethyl)-5-(3,5-difluorophenyl)-N-methylpyridine-3-carboxamide] | 100 to 1000 | –
COc1ncc(C(=O)N2CCCC(F)(F)C2)c(N2CC[C@H](N)C2)c1-c1cc(F)cc(F)c1 [1-237, (3S)-1-[3-(3,5-difluorophenyl)-5-(3,3-difluoropiperidine-1-carbonyl)-2-methoxypyridin-4-yl]pyrrolidin-3-amine] | > 1000 | –
C[C@]1(N)CCN(c2c(C(=O)NCC3CC3(F)F)cncc2-c2cc(F)cc(F)c2)C1 (stereo partly drawn) [1-42, 4-[(3S)-3-amino-3-methylpyrrolidin-1-yl]-N-[(2,2-difluorocyclopropyl)methyl]-5-(3,5-difluorophenyl)pyridine-3-carboxamide] | < 10 | –
Cn1ccc(CNC(=O)c2cnc(C#N)c(-c3cc(F)cc(F)c3)c2N2CC[C@](C)(N)C2)n1 [1-105, 4-[(3S)-3-amino-3-methylpyrrolidin-1-yl]-6-cyano-5-(3,5-difluorophenyl)-N-[(1-methyl-1H-pyrazol-3-yl)methyl]pyridine-3-carboxamide] | 10 to 100 | –
Cc1cccc2[nH]c(-c3cncc(C(=O)N4CCCC4)c3N3CC[C@](C)(N)C3)nc12 [2-2, (3S)-3-methyl-1-[3-(4-methyl-1H-1,3-benzodiazol-2-yl)-5-(pyrrolidine-1-carbonyl)pyridin-4-yl]pyrrolidin-3-amine] | 10 to 100 | –
COc1ncc(C(=O)N[C@@H](C)C(F)(F)F)c(N2CC[C@H](N)C2)c1-c1cc(F)cc(F)c1 [1-151, 4-[(3S)-3-aminopyrrolidin-1-yl]-5-(3,5-difluorophenyl)-6-methoxy-N-[(2S)-1,1,1-trifluoropropan-2-yl]pyridine-3-carboxamide] | < 10 | –
C[C@H](NC(=O)c1cnc(C#N)c(-c2cc(F)cc(F)c2)c1N1C[C@H](N)[C@@H](F)C1)C1CC1 (single isomer, unassigned) [1-136] | 10 to 100 | –
Cc1ncc(C(=O)N[C@@H](C)C2CC2)c(N2CC[C@](C)(N)C2)c1-c1cnn(CC(F)(F)F)c1 [1-155, 4-[(3S)-3-amino-3-methylpyrrolidin-1-yl]-N-[(1S)-1-cyclopropylethyl]-6-methyl-5-[1-(2,2,2-trifluoroethyl)-1H-pyrazol-4-yl]pyridine-3-carboxamide] | > 1000 | > 1000
Cc1cccc2[nH]c(-c3cncc(C(=O)N(C)CC4CC4)c3N3CC[C@](C)(N)C3)nc12 [2-23, 4-[(3S)-3-amino-3-methylpyrrolidin-1-yl]-N-(cyclopropylmethyl)-N-methyl-5-(4-methyl-1H-1,3-benzodiazol-2-yl)pyridine-3-carboxamide] | 10 to 100 | –
N#Cc1cccc(-c2cncc(C(=O)NCc3ccccc3)c2N2CC[C@H](N)C2)c1 [1-9, 4-[(3S)-3-aminopyrrolidin-1-yl]-N-benzyl-5-(3-cyanophenyl)pyridine-3-carboxamide] | 100 to 1000 | –
C[C@H](NC(=O)c1cnc(C#N)c(-c2cc(F)cc(F)c2)c1N1CC[C@@](N)(CF)C1)C1CC1 (single isomer, unassigned) [1-220] | < 10 | –

Molecule | EC50 (Table A) [nM] | EC50 (Table B) [nM]
C[C@]1(N)CCN(c2c(C(=O)NC3CC3)cncc2-c2cc(F)cc(F)c2)C1 [1-23, 4-[(3S)-3-amino-3-methylpyrrolidin-1-yl]-N-cyclopropyl-5-(3,5-difluorophenyl)pyridine-3-carboxamide] | 10 to 100 | –
N#Cc1ncc(C(=O)NC23CC(C2)C3)c(N2CC[C@H](N)C2)c1-c1cccc(F)c1 [1-65, 4-[(3S)-3-aminopyrrolidin-1-yl]-N-{bicyclo[1.1.1]pentan-1-yl}-6-cyano-5-(3-fluorophenyl)pyridine-3-carboxamide] | < 10 | –
CC(C)CNC(=O)c1cncc(-c2cc(F)cc(F)c2)c1N1CC[C@](C)(N)C1 [1-46, 4-[(3S)-3-amino-3-methylpyrrolidin-1-yl]-5-(3,5-difluorophenyl)-N-(2-methylpropyl)pyridine-3-carboxamide] | < 10 | –
COc1ncc(C(=O)NC(C2CC2)C(F)(F)F)c(N2CC[C@H](N)C2)c1-c1cc(F)cc(F)c1 (stereo partly drawn) [1-194, 4-[(3S)-3-aminopyrrolidin-1-yl]-N-(1-cyclopropyl-2,2,2-trifluoroethyl)-5-(3,5-difluorophenyl)-6-methoxypyridine-3-carboxamide] | < 10 | –
Cc1ncc(C(=O)N[C@@H](C)C2CC2)c(N2CC[C@](C)(N)C2)c1-c1cnn(C2CC2)c1 [1-156, 4-[(3S)-3-amino-3-methylpyrrolidin-1-yl]-5-(1-cyclopropyl-1H-pyrazol-4-yl)-N-[(1S)-1-cyclopropylethyl]-6-methylpyridine-3-carboxamide] | 10 to 100 | –
Cc1cccc2[nH]c(-c3cncc(C(=O)N4CCCC4(C)C)c3N3CC[C@](C)(N)C3)nc12 [2-20, (3S)-1-[3-(2,2-dimethylpyrrolidine-1-carbonyl)-5-(4-methyl-1H-1,3-benzodiazol-2-yl)pyridin-4-yl]-3-methylpyrrolidin-3-amine] | < 10 | –
C[C@]1(N)CCN(c2c(C(=O)N[C@@H]3CCCC[C@@H]3F)cncc2-c2cc(F)cc(F)c2)C1 (mixture of isomers) [1-83, 4-[(3S)-3-amino-3-methylpyrrolidin-1-yl]-5-(3,5-difluorophenyl)-N-[cis-2-fluorocyclohexyl]pyridine-3-carboxamide] | < 10 | –
N[C@H]1CCN(c2c(C(=O)NC3CCC(F)(F)CC3)cnc(OCC(=O)O)c2-c2cc(F)cc(F)c2)C1 [1-203, 2-({4-[(3S)-3-aminopyrrolidin-1-yl]-5-[(4,4-difluorocyclohexyl)carbamoyl]-3-(3,5-difluorophenyl)pyridin-2-yl}oxy)acetic acid] | < 10 | –
COCCNC(=O)c1cncc(-c2nc3c(C)cccc3[nH]2)c1N1CC[C@](C)(N)C1 [2-8, 4-[(3S)-3-amino-3-methylpyrrolidin-1-yl]-N-(2-methoxyethyl)-5-(4-methyl-1H-1,3-benzodiazol-2-yl)pyridine-3-carboxamide] | 10 to 100 | –
C[C@H](NC(=O)c1cncc(-c2ccc3c(c2)OC(F)(F)O3)c1N1CC[C@](C)(N)C1)C1CC1 [1-175, 4-[(3S)-3-amino-3-methylpyrrolidin-1-yl]-N-[(1S)-1-cyclopropylethyl]-5-(2,2-difluoro-2H-1,3-benzodioxol-5-yl)pyridine-3-carboxamide] | 10 to 100 | –
C[C@]1(N)CCN(c2c(C(=O)N[C@@H]3CCCC[C@H]3F)cncc2-c2cc(F)cc(F)c2)C1 (mixture of isomers) [1-52, 4-[(3S)-3-amino-3-methylpyrrolidin-1-yl]-5-(3,5-difluorophenyl)-N-[trans-2-fluorocyclohexyl]pyridine-3-carboxamide] | < 10 | –
COc1ncc(C(=O)N[C@@H](C)C(F)(F)F)c(N2CC[C@](C)(N)C2)c1-c1cc(F)cc(F)c1 [1-140, 4-[(3S)-3-amino-3-methylpyrrolidin-1-yl]-5-(3,5-difluorophenyl)-6-methoxy-N-[(2S)-1,1,1-trifluoropropan-2-yl]pyridine-3-carboxamide] | < 10 | –
N#Cc1cccc(-c2cncc(C(=O)NC3CCCCC3)c2N2CC[C@H](N)C2)c1 [1-7, 4-[(3S)-3-aminopyrrolidin-1-yl]-5-(3-cyanophenyl)-N-cyclohexylpyridine-3-carboxamide] | 100 to 1000 | –
C[C@H](NC(=O)c1cnc(C#N)c(-c2cc(F)cc(F)c2)c1N1CC[C@](N)(CF)C1)C1CC1 (single isomer, unassigned) [1-221] | 10 to 100 | –
CC(C)C(NC(=O)c1cncc(-c2cc(F)cc(F)c2)c1N1CC[C@](C)(N)C1)C(F)(F)F (stereo partly drawn) [1-45, 4-[(3S)-3-amino-3-methylpyrrolidin-1-yl]-5-(3,5-difluorophenyl)-N-(1,1,1-trifluoro-3-methylbutan-2-yl)pyridine-3-carboxamide] | < 10 | –
N-(adamantan-1-yl)-3-[(3S)-3-amino-3-methylpyrrolidin-1-yl]-2-(3,5-difluorophenyl)pyridine-4-carboxamide [3-7] | 10 to 100 | –
